According to patent US10167322B2, “Engineered albumin binding polypeptide” (AFFIBODY AB, priority 2013, dated 2019):
Where “and” joins values, the source holds several entries; their conditions need not be identical. Equal entries are not always repeated. Where two headings read alike, the source gives them in different places. Blank lines part the entries; values can stand above or below the substance they belong to. Starred links: 1 amine or outer side, 2 acyl side, 3 side chain; linkers in the order of their positions; H or OH if unused. Positions of bridges follow the written chain, without caps; N, C: chain ends. No end group written: not given here. Pyridine(2,6-diCH2) = c1cc(C[*:1])nc(C[*:2])c1; mXylylene = c1cc(C[*:1])cc(C[*:2])c1; oXylylene = c1ccc(C[*:2])c(C[*:1])c1; X1 = O=C(C[*:1])[*:2]

Tests used:
[1] = Circular dichroism variable temperature measurement (melting temperature); type: physicochemical; settings: CD at 221 nm, 20-90 °C, 50 μM in PBS pH 7.4
Procedure: Polypeptides were dissolved in PBS (pH 7.4) to a concentration of 50 μM (approximately 0.25 mg ml^−1) and CD spectra and melting curves were collected on a Jasco J-810 spectropolarimeter (Jasco) using a cell with an optical path-length of 1 mm. Variable temperature measurements, VTM, were used to determine Tm. In these measurements, the […] was measured at 221 nm from 20° C. to 90° C., with a temperature slope of 5° C. min^−1. The secondary structure of each variant was analyzed by recording a spectrum ranging from 250 to 195 nm at 20° C., both before and after VTM.

[2] = target: T1, human serum albumin (HSA) (Homo sapiens, UniProt P02768); assay: SPR biosensor (ProteOn XPR36) screening of binding to immobilized HSA; settings: 50 nM polypeptide, 2500 RU immobilized HSA, 25 °C
Procedure: Biosensor binding analyses were performed on a ProteOn XPR36 instrument (Bio-Rad) at 25° C. using PBST (150 mM NaCl, 8 mM Na2HPO4, 2 mM NaH2PO4, 0.005% Tween20, pH 7.4) as running buffer at a flow rate of 50 μl min^−1. An injection of 30 μl of 20 mM HCl at a flow rate of 100 μl min^−1 was used for chip regeneration. In a screening experiment, the binding of all polypeptide variants to human serum albumin (HSA) was investigated. The proteins were diluted to 50 nM in running buffer and injected over a chip surface with 2500 RU of immobilized HSA. The association was studied for 300 s and the dissociation was followed for 7200 s (2 h). For data analysis, all samples were double referenced; the signal from a blank surface was first subtracted from the signal from the respective protein, and secondly the signal from an injection of PBST (running buffer) over the HSA surface was subtracted.

[3] = target: T1, human serum albumin (HSA); assay: SPR biosensor (ProteOn XPR36) HSA binding kinetics, 1:1 Langmuir fit; settings: for comparison only; for kon / koff: triplicate, mean (±SD), relative values; for kon: read-out: ka (association rate constant); for koff: read-out: kd (dissociation rate constant)
Procedure: The HSA binding kinetics of PEP18049_CL and the reference protein PEP07830 were further studied using a sensor chip with HSA immobilized on three different surfaces to between 1100 RU and 1600 RU. The proteins were diluted in running buffer (0.8, 1.6, 3.3, and 6.6 nM for PEP18049_CL and 1.0, 2.0, 4.0 and 8.0 nM for PEP07830) and injected over the three HSA surfaces and thus giving binding curves in triplicate. The association time was 300 s and the dissociation was followed for 36 000 s (10 h).
The kinetic parameters of the binding of PEP18049_CL and the reference protein PEP07830 to HSA were obtained from fitting the obtained sensorgrams to a 1:1 Langmuir binding model using the ProteOn Manager software version 3.1.0.6 (Bio-Rad). The average association rate constant (ka (M^−1 s^−1) and dissociation rate constant (kd (s^−1)) with standard deviation were calculated. From the average ka and the kd the dissociation equilibrium constant (KD (M)) was calculated (KD=kd/ka).

pepsin = target: T2, pepsin (Sus scrofa, UniProt P00791); assay: Protease degradation analysis with pepsin (RP-HPLC of intact polypeptide); type: in vitro ADME, porcine; settings: for AUC increase / resistance towards degradation by pepsin compared to PEP07830: 0.5 μg ml^−1 pepsin, 0-60 min; for AUC increase / resistance towards degradation by pepsin compared to PEP07830 / Resistance towards degradation by pepsin, screening: 37 °C; for Resistance towards degradation by pepsin, screening: 2 μg ml^−1 pepsin, pH around 2.6, 10 min
T2 construct: purchased Sigma; host or cells: porcine gastric mucosa
Procedure: (§1) Proteolytic degradation was studied using pepsin (obtained from porcine gastric mucosa, 3200-4500 U mg^−1, Sigma) and a mixture of trypsin (obtained from bovine pancreas, ≈37 U mg^−1, Sigma) and chymotrypsin (obtained from bovine pancreas, ≥40 U mg^−1, Sigma). In all degradation experiments, 5 μg protein in PBS (pH 7.4) at a concentration of 0.25 mg ml^−1 (50 μM) was used.
5 μg of each variant was transferred to a microcentrifuge tube. 32 μl 10 mM HCl with pepsin at a concentration of 3.25 μg ml^−1 or 0.81 μg ml^−1, resulting in a pH around 2.6 and a final pepsin concentration of 2 μg ml^−1 to be used for screening experiment and 0.5 μg ml^−1 for studying the degradation over time. In the screening experiment, the samples were incubated for 10 min at 37° C. before the enzyme was inactivated by addition of 5 μl 0.1 M NaOH, which raised the pH to above 9, and then the sample was put on ice. A reference sample of each protein was inactivated with NaOH before pepsin was added to the tube.
The degradation over time was monitored for PEP18049_CL, PEP14788_CL_A and the reference polypeptide PEP07830 by incubation for 3, 6, 12, 30 or 60 min at 37° C. before inactivation with NaOH. Reference samples, inactivated with NaOH before the pepsin was added to the tube, were incubated likewise.
(§2) All samples were analyzed by RP-HPLC using an analytical column (Zorbax 300SB-C18, 4.6×150 mm, 3.5 μm particle size, Agilent Technologies) and a gradient of 15-45% solvent B (solvent A: 0.1% TFA-H2O; solvent B: 0.1% TFA-CH3CN) over 25 min at a flow rate of 1.2 ml min^−1 and LC-ESI-MS on a 6520 Accurate Mass Q-TOF LC/MS.
(§3) The elution peaks containing the intact polypeptides were integrated and the area under curve was calculated. The degradation experiments over time were performed in triplicates. The integrated area of each sample was normalized to the mean area of the t=0 samples of that variant, the mean and standard error of the mean were calculated for each time point.
(§4) To quantify the stability improvement of the crosslinked variants, the AUC (area under curve) from the normalized charts was calculated for the three investigated variants. The AUC of the crosslinked variants was then compared to the AUC of the reference polypeptide.

trypsin and chymotrypsin = assay: Protease degradation analysis with trypsin and chymotrypsin (RP-HPLC of intact polypeptide); type: in vitro ADME, bovine; settings: for AUC increase / resistance towards degradation by trypsin together with chymotrypsin compared to PEP07830 / Resistance towards degradation by trypsin and chymotrypsin, screening: 2.7 μg ml^−1 trypsin, 1.2 μg ml^−1 chymotrypsin, 37 °C; for AUC increase / resistance towards degradation by trypsin together with chymotrypsin compared to PEP07830: 0-60 min; for Resistance towards degradation by trypsin and chymotrypsin, screening: PBS pH 7.4, 10 min
Procedure: as §1
5 μg of each variant was transferred to a microcentrifuge tube. 32 μl PBS (pH 7.4) with trypsin at a concentration of 4.39 μg ml^−1 and chymotrypsin at a concentration of 1.95 μg ml^−1 was added to yield a final concentration of 2.7 μg ml^−1 of trypsin and 1.2 μg ml^−1 of chymotrypsin. In the screening experiment, the samples were incubated for 10 min at 37° C. before the enzyme was inactivated by addition of 3 μl 10% TFA and then the sample was put on ice. A reference sample of each protein was inactivated with TFA before the trypsin and chymotrypsin were added to the tube.
The degradation over time was monitored for PEP18049_CL, PEP14788_CL_A and the reference polypeptide PEP07830 by incubation for 3, 6, 12, 30, or 60 min at 37° C. before inactivation with TFA. As above, reference samples, inactivated with TFA before trypsin and chymotrypsin were added to the tube, were incubated likewise.
as §2, §3, §4

[4] = human, HSA immobilized on SPR sensor chip (ProteOn XPR36)
[5] = LC-ESI-MS of degradation products

T2 sequence (P00791 60-385): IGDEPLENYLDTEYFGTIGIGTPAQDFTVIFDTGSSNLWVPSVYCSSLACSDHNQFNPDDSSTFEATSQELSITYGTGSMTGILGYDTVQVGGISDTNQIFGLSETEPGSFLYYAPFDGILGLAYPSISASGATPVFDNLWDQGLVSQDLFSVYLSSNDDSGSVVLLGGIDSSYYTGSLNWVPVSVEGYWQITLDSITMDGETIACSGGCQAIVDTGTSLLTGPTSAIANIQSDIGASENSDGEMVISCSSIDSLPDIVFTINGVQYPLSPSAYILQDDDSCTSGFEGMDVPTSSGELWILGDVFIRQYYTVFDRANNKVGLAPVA

Tm (melting temperature) [1]: 63 °C
kon [3, 4]: 620000 M⁻¹ s⁻¹
koff [3, 4]: 1.5e-05 s⁻¹
Kd ([3]; triplicates): ~0.024 nM and 0.024 nM
AUC increase / resistance towards degradation by pepsin compared to PEP07830 (pepsin): 17 fold
Resistance towards degradation by pepsin, screening (pepsin): increased resistance towards degradation
AUC increase / resistance towards degradation by trypsin together with chymotrypsin compared to PEP07830 (trypsin and chymotrypsin): 5 fold
Resistance towards degradation by trypsin and chymotrypsin, screening (trypsin and chymotrypsin): increased resistance towards degradation
Substance: Ac-LAEAKEAANAELDSYGCSDFYKRLIDKAKTVEGVEALKDAILAAKP-NH2 (linker 17-45 via X1) [PEP18049_CL]
HSA binding in screening experiment [2]: fast on-rate and a two phase-like dissociation

Substance: LAEAKEAANAELDSYGCSDFYKRLIDKAKTVEGVEALKDAILAACP-NH2 (linker 17-45 via Pyridine(2,6-diCH2)) [PEP14788_CL_E]
Resistance towards degradation by pepsin, screening (pepsin): no significant difference between these variants
Resistance towards degradation by trypsin and chymotrypsin, screening (trypsin and chymotrypsin): no significant difference between these variants

Substance: LAEAKEAANAELDSYGCSDFYKRLIDKAKTVEGVEALKDAILAACP-NH2 (linker 17-45 via mXylylene) [PEP14788_CL_B]
Resistance towards degradation by pepsin, screening (pepsin): no significant difference between these variants
Resistance towards degradation by trypsin and chymotrypsin, screening (trypsin and chymotrypsin): no significant difference between these variants

AUC increase / resistance towards degradation by pepsin compared to PEP07830 (pepsin): 2.4 fold
AUC increase / resistance towards degradation by trypsin together with chymotrypsin compared to PEP07830 (trypsin and chymotrypsin): 1.4 fold
Substance: LAEAKEAANAELDSYGCSDFYKRLIDKAKTVEGVEALKDAILAACP-NH2 (linker 17-45 via oXylylene) [PEP14788_CL_A]
Resistance towards degradation by pepsin, screening (pepsin): no significant difference between these variants
Resistance towards degradation by trypsin and chymotrypsin, screening (trypsin and chymotrypsin): no significant difference between these variants

Kd ([3]; human, KD=kd/ka from average ka and kd): 0.021 nM
kon ([3]; human): 190000 M⁻¹ s⁻¹
koff ([3]; human): 4.1e-06 s⁻¹
Kd ([3]; human, triplicates): ~0.021 nM
Peptide bond rapidly cleaved by pepsin (major degradation products) (pepsin; [5]): between Leu42 and Ala43
Peptide bond most susceptible for cleavage by trypsin and chymotrypsin (trypsin and chymotrypsin; [5]): between Tyr21 and Lys22
Substance: LAEAKEAANAELDSYGVSDFYKRLIDKAKTVEGVEALKDAILAALP-NH2 (C-terminus assumed) [PEP07830, reference compound]

HSA binding in screening experiment [2]: completely lost their affinity for HSA
Substance: PEP18050_CL: SEQ ID NO:1769 (PEP18050), control polypeptide, crosslinked Lys5-Cys28 (LAEAKEAANAELDSYGVSDFYKRLIDKCKTVEGVEALKDAILAALP; Lys5-Cys28 crosslink; Engineered albumin binding polypeptide)

Substance: PEP18051_CL: SEQ ID NO:1770 (PEP18051), control polypeptide, crosslinked Cys1-Lys29 (CAEAKEAANAELDSYGVSDFYKRLIDKAKTVEGVEALKDAILAALP; Cys1-Lys29 crosslink; Engineered albumin binding polypeptide)
HSA binding in screening experiment [2]: slower on-rate, but also seemed to have a very slow off-rate indicating a high affinity for HSA

HSA binding in screening experiment [2]: completely lost their affinity for HSA
Substance: PEP18052_CL: SEQ ID NO:1771 (PEP18052), control polypeptide, double crosslinked (LAEAKEAANAELDSYGCSDFYKRLIDKCKTVEGVEALKDAILAAKP; double crosslinked; Engineered albumin binding polypeptide)

HSA binding in screening experiment [2]: weak binding
Substance: PEP18053_CL: SEQ ID NO:1772 (PEP18053), control polypeptide, double crosslinked (CAEAKEAANAELDSYGCSDFYKRLIDKAKTVEGVEALKDAILAAKP; double crosslinked; Engineered albumin binding polypeptide)
